In PubChem BioAssay AID248 (DTP/NCI, 2004):
“And” between values parts separate entries of the source, which are not always exact repeats. Identical values can stand only once. Inconclusive results and toxic doses are left out.

Test system: L1210 leukemia ip in BDF1 mice, survival T/C
Experiment: NCI In Vivo Anticancer Drug Screen. Data for tumor model L1210 Leukemia (intraperitoneal) in B6D2F1 (BDF1) mice
Conditions: endpoint: mean survival time, higher = longer survival
In short: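 Mice bearing the transplanted tumor received compound or vehicle. Survival of the treated group was divided by that of the vehicle-treated control group to give the ratio.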

[1] = dose: 100.0 mg/kg/injection, schedule: Q04DX003 (ip), vehicle: saline
[2] = dose: 200.0 mg/kg/injection, schedule: Q04DX003 (ip), vehicle: saline
[3] = dose: 400.0 mg/kg/injection, schedule: Q04DX003 (ip), vehicle: saline
[4] = dose: 100.0 mg/kg/injection, schedule: Q01DX001 (ip), vehicle: saline
[5] = dose: 200.0 mg/kg/injection, schedule: Q01DX001 (ip), vehicle: saline
[6] = dose: 400.0 mg/kg/injection, schedule: Q01DX001 (ip), vehicle: saline
[7] = dose: 200.0 mg/kg/injection, schedule: Q01DX009 (ip), vehicle: saline
[8] = dose: 400.0 mg/kg/injection, schedule: Q01DX009 (ip), vehicle: saline
[9] = dose: 100.0 mg/kg/injection, schedule: Q01DX001 (ip), vehicle: saline with Tween-80
[10] = dose: 100.0 mg/kg/injection, schedule: Q01DX009 (ip), vehicle: saline with Tween-80
[11] = dose: 100.0 mg/kg/injection, schedule: Q04DX002 (ip), vehicle: saline with Tween-80
[12] = dose: 100.0 mg/kg/injection, schedule: Q04DX003 (ip), vehicle: saline with Tween-80
[13] = dose: 200.0 mg/kg/injection, schedule: Q01DX001 (ip), vehicle: saline with Tween-80
[14] = dose: 200.0 mg/kg/injection, schedule: Q01DX009 (ip), vehicle: saline with Tween-80
[15] = dose: 200.0 mg/kg/injection, schedule: Q04DX002 (ip), vehicle: saline with Tween-80
[16] = dose: 200.0 mg/kg/injection, schedule: Q04DX003 (ip), vehicle: saline with Tween-80
[17] = dose: 400.0 mg/kg/injection, schedule: Q01DX001 (ip), vehicle: saline with Tween-80
[18] = dose: 400.0 mg/kg/injection, schedule: Q04DX002 (ip), vehicle: saline with Tween-80
[19] = dose: 100.0 mg/kg/injection, schedule: Q01DX009 (ip), vehicle: Klucel (hydroxypropylcellulose) (HPC)
[20] = dose: 200.0 mg/kg/injection, schedule: Q01DX009 (ip), vehicle: Klucel (hydroxypropylcellulose) (HPC)
[21] = dose: 200.0 mg/kg/injection, schedule: Q04DX003 (ip), vehicle: Klucel (hydroxypropylcellulose) (HPC)
[22] = dose: 400.0 mg/kg/injection, schedule: Q01DX009 (ip), vehicle: Klucel (hydroxypropylcellulose) (HPC)
[23] = dose: 400.0 mg/kg/injection, schedule: Q04DX003 (ip), vehicle: Klucel (hydroxypropylcellulose) (HPC)

COc1cc(NC(C)CCCN2C(=O)c3ccccc3C2=O)c2nc(-c3ccc(Cl)cc3)ccc2c1 (stereo not drawn)
T/C (dose: 50.0 mg/kg/injection, schedule: Q04DX003 (ip), vehicle: saline): 90 % of control | T/C (dose: 100.0 mg/kg/injection, schedule: Q01DX009 (ip), vehicle: other): 94 % of control | T/C [1]: 92 % of control | T/C (dose: 200.0 mg/kg/injection, schedule: Q01DX009 (ip), vehicle: other): 94 % of control | T/C [2]: 90 % of control | T/C (dose: 400.0 mg/kg/injection, schedule: Q01DX009 (ip), vehicle: other): 101 % of control | T/C [3]: 87 % of control

CCCCC#CCl
T/C [4]: 101 % of control | T/C [5]: 94 % of control | T/C [6]: 94 % of control

COC1OC(CNC(=O)N(C)N=O)C(O)C(O)C1O (stereo not drawn)
T/C [1]: 115 % of control | T/C (dose: 115.0 mg/kg/injection, schedule: Q04DX003 (ip), vehicle: saline): 116 % of control | T/C (dose: 132.0 mg/kg/injection, schedule: Q04DX003 (ip), vehicle: saline): 120 % of control | T/C [7]: 150 % of control and 170 % of control | T/C (dose: 300.0 mg/kg/injection, schedule: Q01DX009 (ip), vehicle: saline): 173 % of control | T/C [8]: 166 % of control | T/C [3]: 150 % of control and 160 % of control

Cc1[nH]c(=O)[nH]c(=O)c1Br
T/C (dose: 37.0 mg/kg/injection, schedule: Q01DX Z (ip), vehicle: methylcellulose (MC)): 91 % of control | T/C (dose: 75.0 mg/kg/injection, schedule: Q01DX Z (ip), vehicle: methylcellulose (MC)): 96 % of control | T/C (dose: 150.0 mg/kg/injection, schedule: Q01DX Z (ip), vehicle: methylcellulose (MC)): 86 % of control

O=C(Nc1ccc(I)cc1)Nc1ccc(Cl)cc1[N+](=O)[O-]
T/C [9]: 96 % of control | T/C [10]: 97 % of control and 92 % of control | T/C [11]: 98 % of control and 91 % of control | T/C [12]: 93 % of control | T/C [13]: 90 % of control | T/C [14]: 87 % of control | T/C [15]: 94 % of control and 98 % of control | T/C [16]: 97 % of control | T/C [17]: 87 % of control | T/C [18]: 93 % of control and 91 % of control | T/C (dose: 400.0 mg/kg/injection, schedule: Q04DX003 (ip), vehicle: saline with Tween-80): 95 % of control

O=c1[nH]cnc2c1ncn2Cc1ccccc1
T/C [9]: 104 % of control | T/C [13]: 102 % of control | T/C [17]: 96 % of control

O=C(Nc1cccs1)c1ccccc1
T/C [1]: 97 % of control | T/C [2]: 93 % of control | T/C [3]: 95 % of control

CC12CCC(O)C(C)(C)C1CCC1=C2CCC2(C)C(c3ccoc3)CCC12C (stereo not drawn)
T/C (dose: 50.0 mg/kg/injection, schedule: Q01DX001 (sc), vehicle: steriod suspending solution): 111 % of control | T/C (dose: 100.0 mg/kg/injection, schedule: Q01DX001 (sc), vehicle: steriod suspending solution): 115 % of control | T/C (dose: 200.0 mg/kg/injection, schedule: Q01DX001 (sc), vehicle: steriod suspending solution): 105 % of control | T/C (dose: 400.0 mg/kg/injection, schedule: Q01DX001 (sc), vehicle: steriod suspending solution): 109 % of control

CC(C)(C)CC(C)(C)c1ccc(OCCOc2ccc([N+](=O)[O-])cc2N)cc1
T/C [19]: 97 % of control | T/C (dose: 100.0 mg/kg/injection, schedule: Q04DX003 (ip), vehicle: Klucel (hydroxypropylcellulose) (HPC)): 98 % of control | T/C [20]: 97 % of control | T/C [21]: 93 % of control | T/C [22]: 101 % of control | T/C [23]: 86 % of control

CC(=O)c1cccc(OC(=O)c2ccccc2)c1
T/C (dose: 50.0 mg/kg/injection, schedule: Q01DX001 (ip), vehicle: saline): 112 % of control | T/C [4]: 106 % of control | T/C [5]: 104 % of control | T/C [6]: 104 % of control

CC(=O)OC1CCC2(C)C3=C(CCC2C1(C)C)C1(C)CCC(C(C)CCC2NC2(C)C)C1(C)CC3 (stereo not drawn)
T/C (dose: 100.0 mg/kg/injection, schedule: Q04DX003 (sc), vehicle: steriod suspending solution): 105 % of control | T/C (dose: 200.0 mg/kg/injection, schedule: Q04DX003 (sc), vehicle: steriod suspending solution): 101 % of control | T/C (dose: 400.0 mg/kg/injection, schedule: Q04DX003 (sc), vehicle: steriod suspending solution): 105 % of control

Cc1cnc(C)c(OCCN2CC2)n1
T/C [4]: 93 % of control

CC(Br)(c1ccccc1)[P+](c1ccccc1)(c1ccccc1)c1ccccc1 (stereo not drawn)
T/C (dose: 15.0 mg/kg/injection, schedule: Q01DX001 (ip), vehicle: carboxymethylcellulose (CMC)): 96 % of control | T/C (dose: 30.0 mg/kg/injection, schedule: Q01DX001 (ip), vehicle: carboxymethylcellulose (CMC)): 101 % of control

O=C(Cc1ccccc1)Nc1cc(C(F)(F)F)ccc1Cl
T/C (dose: 100.0 mg/kg/injection, schedule: Q04DX002 (ip), vehicle: saline): 100 % of control | T/C (dose: 200.0 mg/kg/injection, schedule: Q04DX002 (ip), vehicle: saline): 93 % of control | T/C (dose: 400.0 mg/kg/injection, schedule: Q04DX002 (ip), vehicle: saline): 100 % of control

O=C1NC(=O)C(Cc2ccc(Cl)cc2)C(=O)N1
T/C [10]: 103 % of control | T/C [11]: 93 % of control | T/C [14]: 98 % of control | T/C [15]: 101 % of control | T/C (dose: 400.0 mg/kg/injection, schedule: Q01DX009 (ip), vehicle: saline with Tween-80): 98 % of control | T/C [18]: 101 % of control

N/N=C1/CCN2CCCc3cccc1c32
T/C [12]: 101 % of control | T/C [16]: 96 % of control

O=C(c1cc(Cl)cc(Cl)c1)N1CC1
T/C (dose: 25.0 mg/kg/injection, schedule: Q01DX009 (ip), vehicle: saline): 100 % of control | T/C (dose: 50.0 mg/kg/injection, schedule: Q01DX009 (ip), vehicle: saline): 91 % of control | T/C (dose: 100.0 mg/kg/injection, schedule: Q01DX009 (ip), vehicle: saline): 90 % of control | T/C [7]: 100 % of control | T/C [8]: 96 % of control

C[CH2][Sn]([CH2]C)([CH2]C)[O]c1ccccc1
T/C (dose: 1.56 mg/kg/injection, schedule: Q01DX009 (ip), vehicle: saline with Tween-80): 97 % of control | T/C (dose: 3.12 mg/kg/injection, schedule: Q01DX009 (ip), vehicle: saline with Tween-80): 108 % of control

Clc1ccc(/C=N\Nc2c3ccccc3nc3ccccc23)cc1Cl
T/C [4]: 97 % of control | T/C [5]: 94 % of control | T/C [6]: 111 % of control

NC1=NCCN1c1cccc2ccccc12
T/C (dose: 75.0 mg/kg/injection, schedule: Q01DX001 (ip), vehicle: carboxymethylcellulose (CMC)): 102 % of control | T/C (dose: 150.0 mg/kg/injection, schedule: Q01DX001 (ip), vehicle: carboxymethylcellulose (CMC)): 98 % of control

CCCCCCC1CCC(C(=O)O)CC1 (stereo not drawn)
T/C (dose: 100.0 mg/kg/injection, schedule: Q01DX001 (ip), vehicle: Klucel (hydroxypropylcellulose) (HPC)): 96 % of control | T/C [19]: 98 % of control | T/C (dose: 200.0 mg/kg/injection, schedule: Q01DX001 (ip), vehicle: Klucel (hydroxypropylcellulose) (HPC)): 97 % of control | T/C [20]: 98 % of control | T/C (dose: 400.0 mg/kg/injection, schedule: Q01DX001 (ip), vehicle: Klucel (hydroxypropylcellulose) (HPC)): 97 % of control | T/C [22]: 89 % of control

Cc1nc2c(nc1C)C(=O)C1C3c4ccccc4C(c4ccccc43)C1C2=O (stereo not drawn)
T/C [21]: 93 % of control | T/C [23]: 93 % of control
